Source: ChEMBL document CHEMBL1201862, “PubChem BioAssay data set” (2004)
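Interpolation was linear, between the two tested concentrations surrounding the appropriate level; five concentrations were tested over 48 hours in 96-well plates. GI50 is the concentration that inhibits growth by half.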 Activity calls are given as the source filed them. No stated cut-off is given here; in the data, active = GI50 up to about 1.1 µM and inactive = higher.

Key:
Assay in all cases: inhibition of tumour cell growth, NCI panel, 48 h
786-0 = tested on: 786-0
A498 = tested on: A498
A549 = tested on: A549
ACHN = tested on: ACHN
CAKI-1 = tested on: CAKI-1
CCRF-CEM = tested on: CCRF-CEM
COLO 205 = tested on: COLO 205
DLD-1 = tested on: DLD-1
DMS-114 = tested on: DMS-114
DMS-273 = tested on: DMS-273
EKVX = tested on: EKVX
HCC 2998 = tested on: HCC 2998
HCT-116 = tested on: HCT-116
HCT-15 = tested on: HCT-15
HL-60 = tested on: HL-60
HOP-18 = tested on: HOP-18
HOP-62 = tested on: HOP-62
HOP-92 = tested on: HOP-92
HT-29 = tested on: HT-29
IGROV-1 = tested on: IGROV-1
K562 = tested on: K562
KM-20L2 = tested on: KM-20L2
LOX IMVI = tested on: LOX IMVI
LXFL 529 = tested on: LXFL 529
M14 = tested on: M14
M19-MEL = tested on: M19-MEL
MOLT-4 = tested on: MOLT-4
NCI-H23 = tested on: NCI-H23
NCI-H460 = tested on: NCI-H460
OVCAR-3 = tested on: OVCAR-3
OVCAR-4 = tested on: OVCAR-4
OVCAR-8 = tested on: OVCAR-8
RPMI-8226 = tested on: RPMI-8226
RXF 393 = tested on: RXF 393
RXF 631 = tested on: RXF 631
SF-295 = tested on: SF-295
SF-539 = tested on: SF-539
SK-MEL-28 = tested on: SK-MEL-28
SK-MEL-5 = tested on: SK-MEL-5
SK-OV-3 = tested on: SK-OV-3
SN12C = tested on: SN12C
SNB-19 = tested on: SNB-19
SNB-75 = tested on: SNB-75
SNB-78 = tested on: SNB-78
SW-620 = tested on: SW-620
TK-10 = tested on: TK-10
U-251 = tested on: U-251
UACC-257 = tested on: UACC-257
UACC-62 = tested on: UACC-62
XF498 = tested on: XF498

CCOC(=O)NC(=O)c1cn(CCCCCCCCCCC(=O)N2CCN(CCn3cc(C(=O)NC(=O)OCC)c(=O)[nH]c3=O)CC2)c(=O)[nH]c1=O
GI50 (786-0): > 100 µM (inactive) | GI50 (A498): > 100 µM (inactive) | GI50 (A549): > 100 µM (inactive) | GI50 (ACHN): > 100 µM (inactive) | GI50 (CAKI-1): > 100 µM (inactive) | GI50 (CCRF-CEM): > 100 µM (inactive) | GI50 (COLO 205): > 100 µM (inactive) | GI50 (DLD-1): > 100 µM (inactive) | GI50 (DMS-114): > 100 µM (inactive) | GI50 (DMS-273): > 100 µM (inactive) | GI50 (EKVX): > 100 µM (inactive) | GI50 (HCC 2998): > 100 µM (inactive) | GI50 (HCT-116): > 100 µM (inactive) | GI50 (HCT-15): > 100 µM | GI50 (HL-60): > 100 µM (inactive) | GI50 (HOP-18): > 100 µM (inactive) | GI50 (HOP-62): > 100 µM (inactive) | GI50 (HOP-92): > 100 µM (inactive) | GI50 (HT-29): > 100 µM (inactive) | GI50 (IGROV-1): > 100 µM (inactive) | GI50 (K562): > 100 µM (inactive) | GI50 (KM-20L2): > 100 µM (inactive) | GI50 (LOX IMVI): > 100 µM (inactive) | GI50 (LXFL 529): > 100 µM (inactive) | GI50 (M14): > 100 µM (inactive) | GI50 (M19-MEL): > 100 µM (inactive) | GI50 (MOLT-4): > 100 µM (inactive) | GI50 (NCI-H23): > 100 µM (inactive) | GI50 (NCI-H460): > 100 µM (inactive) | GI50 (OVCAR-3): > 100 µM (inactive) | GI50 (OVCAR-4): > 100 µM (inactive) | GI50 (OVCAR-8): > 100 µM (inactive) | GI50 (RPMI-8226): > 100 µM (inactive) | GI50 (RXF 393): > 100 µM (inactive) | GI50 (RXF 631): > 100 µM (inactive) | GI50 (SF-295): > 100 µM (inactive) | GI50 (SF-539): > 100 µM (inactive) | GI50 (SK-MEL-28): > 100 µM (inactive) | GI50 (SK-MEL-5): > 100 µM (inactive) | GI50 (SK-OV-3): > 100 µM (inactive) | GI50 (SN12C): > 100 µM (inactive) | GI50 (SNB-19): > 100 µM (inactive) | GI50 (SNB-75): > 100 µM (inactive) | GI50 (SNB-78): > 100 µM (inactive) | GI50 (SW-620): > 100 µM (inactive) | GI50 (TK-10): > 100 µM (inactive) | GI50 (U-251): > 100 µM (inactive) | GI50 (UACC-257): > 100 µM (inactive) | GI50 (UACC-62): > 100 µM (inactive) | GI50 (XF498): > 100 µM (inactive)
